Assay results: ChEMBL document CHEMBL4257522, “Synthesis and preliminary anti-inflammatory and anti-bacterial evaluation of some diflunisal aza-analogs” (Medchemcomm, 2018)
Activity calls are given as the source filed them. No cut-off for these calls is given here.

Assays:
Streptococcus pyogenes [1] = assay: Potentiation of ciprofloxacin-induced antibacterial activity against Streptococcus pyogenes ATCC 14289 assessed as minimum modulatory concentration up to 32 uM measured after 16 hrs in presence of MIC/4 ciprofloxacin; assay type: functional; conditions: ATCC 14289, 16 h, read-out: MEC
Escherichia coli [2] = assay: Potentiation of methicillin-induced antibacterial activity against Escherichia coli ATCC 43894 assessed as minimum modulatory concentration up to 32 uM measured after 16 hrs in presence of MIC/4 methicillin; assay type: functional; conditions: ATCC 43894, 16 h, read-out: MEC
Escherichia coli [3] = assay: Potentiation of geneticin-induced antibacterial activity against Escherichia coli ATCC 43894 assessed as minimum modulatory concentration up to 32 uM measured after 16 hrs in presence of MIC/4 geneticin; assay type: functional; conditions: ATCC 43894, 16 h, read-out: MEC
Klebsiella pneumoniae [4] = assay: Toxicity in Klebsiella pneumoniae ATCC 13883 up to 32 uM measured after 16 hrs; assay type: organism-based
Macrophage cell line [5] = assay: Cytotoxicity against human PBMC-differentiated macrophages treated for 24 hrs followed by compound washout and measured after 48 hrs by MTT assay; assay type: cell-based
Staphylococcus aureus [6] = assay: Potentiation of methicillin-induced antibacterial activity against Staphylococcus aureus ATCC 33592 assessed as minimum modulatory concentration up to 32 uM measured after 16 hrs in presence of MIC/4 methicillin; assay type: functional; conditions: ATCC 33592, 16 h, read-out: MEC
Staphylococcus aureus [7] = assay: Potentiation of ciprofloxacin-induced antibacterial activity against Staphylococcus aureus ATCC 33592 assessed as minimum modulatory concentration up to 32 uM measured after 16 hrs in presence of MIC/4 ciprofloxacin; assay type: functional; conditions: ATCC 33592, 16 h, read-out: MEC
Macrophage cell line [8] = assay: Induction of prostaglandin production in human PBMC-differentiated macrophages after 24 hrs by ELISA; assay type: cell-based
Enterococcus faecium [9] = assay: Potentiation of methicillin-induced antibacterial activity against Enterococcus faecium ATCC 700221 assessed as minimum modulatory concentration up to 32 uM measured after 16 hrs in presence of MIC/4 methicillin; assay type: functional; conditions: ATCC 700221, 16 h, read-out: MEC
Streptococcus pyogenes [10] = assay: Potentiation of methicillin-induced antibacterial activity against Streptococcus pyogenes ATCC 14289 assessed as minimum modulatory concentration up to 32 uM measured after 16 hrs in presence of MIC/4 methicillin; assay type: functional; conditions: ATCC 14289, 16 h, read-out: MEC
Klebsiella pneumoniae [11] = assay: Potentiation of tetracycline-induced antibacterial activity against Klebsiella pneumoniae ATCC 13883 assessed as minimum modulatory concentration up to 32 uM measured after 16 hrs in presence of MIC/4 tetracycline; assay type: functional; conditions: ATCC 13883, 16 h, read-out: MEC
Escherichia coli [12] = assay: Potentiation of tetracycline-induced antibacterial activity against Escherichia coli ATCC 43894 assessed as minimum modulatory concentration up to 32 uM measured after 16 hrs in presence of MIC/4 tetracycline; assay type: functional; conditions: ATCC 43894, 16 h, read-out: MEC
Klebsiella pneumoniae [13] = assay: Potentiation of geneticin-induced antibacterial activity against Klebsiella pneumoniae ATCC 13883 assessed as minimum modulatory concentration up to 32 uM measured after 16 hrs in presence of MIC/4 geneticin; assay type: functional; conditions: ATCC 13883, 16 h, read-out: MEC
Enterococcus faecium [14] = assay: Potentiation of erythromycin-induced antibacterial activity against Enterococcus faecium ATCC 700221 assessed as minimum modulatory concentration up to 32 uM measured after 16 hrs in presence of MIC/4 erythromycin; assay type: functional; conditions: ATCC 700221, 16 h, read-out: MEC
Klebsiella pneumoniae [15] = assay: Potentiation of methicillin-induced antibacterial activity against Klebsiella pneumoniae ATCC 13883 assessed as minimum modulatory concentration up to 32 uM measured after 16 hrs in presence of MIC/4 methicillin; assay type: functional; conditions: ATCC 13883, 16 h, read-out: MEC
Klebsiella pneumoniae [16] = assay: Potentiation of ciprofloxacin-induced antibacterial activity against Klebsiella pneumoniae ATCC 13883 assessed as minimum modulatory concentration up to 32 uM measured after 16 hrs in presence of MIC/4 ciprofloxacin; assay type: functional; conditions: ATCC 13883, 16 h, read-out: MEC
Pseudomonas aeruginosa [17] = assay: Potentiation of geneticin-induced antibacterial activity against Pseudomonas aeruginosa ATCC BAA-2108 assessed as minimum modulatory concentration up to 32 uM measured after 16 hrs in presence of MIC/4 geneticin; assay type: functional; conditions: ATCC BAA-2108, 16 h, read-out: MEC
Macrophage cell line [18] = assay: Antiinflammatory activity in human PBMC-differentiated macrophages assessed as inhibition of LPS-induced IL-8 production at 0.01 to 10 uM measured after 24 hrs by ELISA; assay type: functional, cell-based
Macrophage cell line [19] = assay: Induction of TNFalpha production in human PBMC-differentiated macrophages after 24 hrs by ELISA; assay type: cell-based
Pseudomonas aeruginosa [20] = assay: Potentiation of erythromycin-induced antibacterial activity against Pseudomonas aeruginosa ATCC BAA-2108 assessed as minimum modulatory concentration up to 32 uM measured after 16 hrs in presence of MIC/4 erythromycin; assay type: functional; conditions: ATCC BAA-2108, 16 h, read-out: MEC
Streptococcus pyogenes [21] = assay: Potentiation of tetracycline-induced antibacterial activity against Streptococcus pyogenes ATCC 14289 assessed as minimum modulatory concentration up to 32 uM measured after 16 hrs in presence of MIC/4 tetracycline; assay type: functional; conditions: ATCC 14289, 16 h, read-out: MEC
Pseudomonas aeruginosa [22] = assay: Potentiation of methicillin-induced antibacterial activity against Pseudomonas aeruginosa ATCC BAA-2108 assessed as minimum modulatory concentration up to 32 uM measured after 16 hrs in presence of MIC/4 methicillin; assay type: functional; conditions: ATCC BAA-2108, 16 h, read-out: MEC
Staphylococcus aureus [23] = assay: Potentiation of geneticin-induced antibacterial activity against Staphylococcus aureus ATCC 33592 assessed as minimum modulatory concentration up to 32 uM measured after 16 hrs in presence of MIC/4 geneticin; assay type: functional; conditions: ATCC 33592, 16 h, read-out: MEC
Escherichia coli [24] = assay: Toxicity in Escherichia coli ATCC 43894 up to 32 uM measured after 16 hrs; assay type: organism-based
Macrophage cell line [25] = assay: Antiinflammatory activity in human PBMC-differentiated macrophages assessed as inhibition of LPS-induced prostaglandin production at 0.01 to 10 uM measured after 24 hrs by ELISA; assay type: functional, cell-based
Pseudomonas aeruginosa [26] = assay: Potentiation of tetracycline-induced antibacterial activity against Pseudomonas aeruginosa ATCC BAA-2108 assessed as minimum modulatory concentration up to 32 uM measured after 16 hrs in presence of MIC/4 tetracycline; assay type: functional; conditions: ATCC BAA-2108, 16 h, read-out: MEC
Pseudomonas aeruginosa [27] = assay: Toxicity in Pseudomonas aeruginosa ATCC BAA-2108 up to 32 uM measured after 16 hrs; assay type: organism-based; conditions: in vitro
Streptococcus pyogenes [28] = assay: Toxicity in Streptococcus pyogenes ATCC 14289 up to 32 uM measured after 16 hrs; assay type: organism-based
Pseudomonas aeruginosa [29] = assay: Potentiation of ciprofloxacin-induced antibacterial activity against Pseudomonas aeruginosa ATCC BAA-2108 assessed as minimum modulatory concentration up to 32 uM measured after 16 hrs in presence of MIC/4 ciprofloxacin; assay type: functional; conditions: ATCC BAA-2108, 16 h, read-out: MEC
Enterococcus faecium [30] = assay: Potentiation of tetracycline-induced antibacterial activity against Enterococcus faecium ATCC 700221 assessed as minimum modulatory concentration up to 32 uM measured after 16 hrs in presence of MIC/4 tetracycline; assay type: functional; conditions: ATCC 700221, 16 h, read-out: MEC
Streptococcus pyogenes [31] = assay: Potentiation of geneticin-induced antibacterial activity against Streptococcus pyogenes ATCC 14289 assessed as minimum modulatory concentration up to 32 uM measured after 16 hrs in presence of MIC/4 geneticin; assay type: functional; conditions: ATCC 14289, 16 h, read-out: MEC
Staphylococcus aureus [32] = assay: Potentiation of tetracycline-induced antibacterial activity against Staphylococcus aureus ATCC 33592 assessed as minimum modulatory concentration up to 32 uM measured after 16 hrs in presence of MIC/4 tetracycline; assay type: functional; conditions: ATCC 33592, 16 h, read-out: MEC
Klebsiella pneumoniae [33] = assay: Potentiation of erythromycin-induced antibacterial activity against Klebsiella pneumoniae ATCC 13883 assessed as minimum modulatory concentration up to 32 uM measured after 16 hrs in presence of MIC/4 erythromycin; assay type: functional; conditions: ATCC 13883, 16 h, read-out: MEC

| SMILES | minimal effective concentration (Streptococcus pyogenes [1]) [µM] | minimal effective concentration (Escherichia coli [2]) [µM] | minimal effective concentration (Escherichia coli [3]) [µM] | Activity (Klebsiella pneumoniae [4]) | IC50 (Macrophage cell line [5]) [µM] | minimal effective concentration (Staphylococcus aureus [6]) [µM] | minimal effective concentration (Staphylococcus aureus [7]) [µM] | Activity (Macrophage cell line [8]) | minimal effective concentration (Enterococcus faecium [9]) [µM] | minimal effective concentration (Streptococcus pyogenes [10]) [µM] | minimal effective concentration (Klebsiella pneumoniae [11]) [µM] | minimal effective concentration (Escherichia coli [12]) [µM] | minimal effective concentration (Klebsiella pneumoniae [13]) [µM] | minimal effective concentration (Enterococcus faecium [14]) [µM] | minimal effective concentration (Klebsiella pneumoniae [15]) [µM] | minimal effective concentration (Klebsiella pneumoniae [16]) [µM] | minimal effective concentration (Pseudomonas aeruginosa [17]) [µM] | inhibition (Macrophage cell line [18]) | Activity (Macrophage cell line [19]) | minimal effective concentration (Pseudomonas aeruginosa [20]) [µM] | also measured |
| --- | --- | --- | --- | --- | --- | --- | --- | --- | --- | --- | --- | --- | --- | --- | --- | --- | --- | --- | --- | --- | --- |
| C[n+]1ccc(C(=O)[O-])c(O)c1Cc1ccccc1 | > 32 | > 32 | > 32 | Non-Toxic | > 100 | > 32 | > 32 | Non-Toxic | > 32 | > 32 | > 32 | > 32 | > 32 | > 32 | > 32 | > 32 | > 32 | inactive | Non-Toxic | > 32 | minimal effective concentration (Streptococcus pyogenes [21]): > 32 µM; minimal effective concentration (Pseudomonas aeruginosa [22]): > 32 µM; minimal effective concentration (Staphylococcus aureus [23]): > 32 µM; Activity (Escherichia coli [24]): Non-Toxic; inhibition (Macrophage cell line [25]): inactive; minimal effective concentration (Pseudomonas aeruginosa [26]): > 32 µM; Activity (Pseudomonas aeruginosa [27]): Non-Toxic; Activity (Streptococcus pyogenes [28]): Non-Toxic; minimal effective concentration (Pseudomonas aeruginosa [29]): > 32 µM; minimal effective concentration (Enterococcus faecium [30]): > 32 µM; minimal effective concentration (Streptococcus pyogenes [31]): > 32 µM; minimal effective concentration (Staphylococcus aureus [32]): > 32 µM; minimal effective concentration (Klebsiella pneumoniae [33]): > 32 µM |
| O=C(O)c1cc(-c2ccccc2)nc(-c2ccccc2)c1O | > 32 | > 32 | > 32 | Non-Toxic | 81.2 | 4 | 16 | Non-Toxic | 2 | 2 | > 32 | > 32 | > 32 | 2 | > 32 | > 32 | > 32 | inactive | Non-Toxic | 8 | minimal effective concentration (Streptococcus pyogenes [21]): 8 µM; minimal effective concentration (Pseudomonas aeruginosa [22]): 8 µM; minimal effective concentration (Staphylococcus aureus [23]): 8 µM; Activity (Escherichia coli [24]): Non-Toxic; minimal effective concentration (Pseudomonas aeruginosa [26]): > 32 µM; Activity (Pseudomonas aeruginosa [27]): Non-Toxic; Activity (Streptococcus pyogenes [28]): Non-Toxic; minimal effective concentration (Pseudomonas aeruginosa [29]): 8 µM; minimal effective concentration (Enterococcus faecium [30]): 2 µM; minimal effective concentration (Streptococcus pyogenes [31]): 4 µM; minimal effective concentration (Staphylococcus aureus [32]): 2 µM; minimal effective concentration (Klebsiella pneumoniae [33]): > 32 µM |
| O=C(O)c1cc(-c2ccc(F)cc2F)ccc1O [DIFLUNISAL] | > 32 | > 32 | > 32 | Non-Toxic | 53 | 8 | > 32 | Non-Toxic | 16 | 16 | > 32 | > 32 | > 32 | > 32 | > 32 | > 32 | > 32 | inactive | Non-Toxic | > 32 | minimal effective concentration (Streptococcus pyogenes [21]): > 32 µM; minimal effective concentration (Pseudomonas aeruginosa [22]): > 32 µM; minimal effective concentration (Staphylococcus aureus [23]): > 32 µM; Activity (Escherichia coli [24]): Non-Toxic; minimal effective concentration (Pseudomonas aeruginosa [26]): > 32 µM; Activity (Pseudomonas aeruginosa [27]): Non-Toxic; Activity (Streptococcus pyogenes [28]): Non-Toxic; minimal effective concentration (Pseudomonas aeruginosa [29]): > 32 µM; minimal effective concentration (Enterococcus faecium [30]): > 32 µM; minimal effective concentration (Streptococcus pyogenes [31]): > 32 µM; minimal effective concentration (Staphylococcus aureus [32]): > 32 µM; minimal effective concentration (Klebsiella pneumoniae [33]): > 32 µM |
